Source: patent US12215389B2, “Compositions for detecting epigenetic modifications” (EXACT SCIENCES CORPORATION, priority 2007, dated 2025)

Tested on: methylated gene promoters in fecal DNA
Test: Real-time MSP on stool (fecal) DNA
Parameters: species or system human
Details: fecal samples; for Sens adenoma: 13 samples; for Sens CRC: 15 samples; for Spec: 19 samples
Text: A standardized multicenter screening trial (The Netherlands) was initiated in 2006. In this trial, non symptomatic subjects aged 50 or above are screened with colonoscopy, FOBT and real-time MSP using DNA from stool and blood. In addition, prospectively collected stool samples from multiple centers (Germany and The Netherlands) were used. In these trials, symptomatic patients, attending a Gastroenterology clinic and ultimately diagnosed with CRC, provided a stool sample for use in real-time MSP. From the ongoing trials 147 stool samples were available for the present study. 3 main categories of stool samples were used: 67 samples with no suspicious findings, 58 adenomas and 22 samples from patients covering all stages of CRC, with 90% representing early stage disease.
After defecation in a special bucket, patients added 250 ml of stool homogenization buffer (Amresco, Solon, Ohio, USA) to the sample. Samples were shipped to the laboratory and further processed within 72 hours after defecation. Stool homogenization buffer was added to a ratio 1:7, and the samples were homogenized and aliquoted in portions of 32 ml.
Single aliquots (32 ml containing the equivalent of 4 g of stool) were centrifuged for 5 minutes at 2540 rcf at 20° C. The supernatant was retained and centrifuged a second time (10 minutes at 16500 rcf at 4° C.). 22 ml of the supernatant obtained following the second centrifugation step was incubated with 5 μl Rnase A for 60 minutes at 37° C. Total DNA was then SodiumAcetate (pH 5.2)-isopropanol precipitated and washed with 70% ethanol. The DNA was resuspended in 4 ml 1×TE (pH 7.4). 400 μl 10× buffer (240 mM EDTA (pH=8.0), 750 mM NaC), 400 μl 10% SDS, and 20 μl Proteinase K (20 mg/ml) was added and the samples were incubated at 48° C. overnight at constant shaking (225 RPM). After centrifugation (3000 RCF for 30 seconds at room temperature), 5 ml of Phenol:Chloroform:Isoamylalcohol (25:24:1, v/v:Invitrogen) was added and incubated for 10 minutes at room temperature shaking at 225 RPM and centrifuged for 5 minutes at 3000 RCF. The aqueous layer was transferred to a new tube containing 5 ml of Phenol:Chloroform:Isoamylalcohol. Again, the samples were incubated for 10 minutes at room temperature shaking at 225 RPM and centrifuged for 5 minutes at 3000 RCF at room temperature. The aqueous layer was transferred to a new tube and DNA was precipitated by adding 500 μl 7.5 M Ammonium Acetate, 5 μl glycogen and 10 ml of cold 100% Ethanol (−20° C.), further incubated at −20° C. for at least 1 hour and centrifuged at 15000 RCF for 30 minutes at 4° C. Pellets were washed with 3.5 ml freshly prepared 70% Ethanol and air dried. Pellets were finally resuspended in 2 ml of LoTE pH 8.0 and stored at −80° C., until further processing.
An upscaled DNA modification step was applied to 32 μg of the obtained DNA. 16 Aliquots of 2 μg of DNA were subjected to bisulfite modification in 96-wells format on a pipetting robot (Tecan), using the EZ-96DNA Methylation kit (Zymo Research), according to the manufacturer's protocol. Basically, aliquots of 45 μl were mixed with 5 μl of M-Dilution Buffer and incubated at 37° C. for 15 minutes shaking at 1100 rpm. Then 100 μl of the diluted CT Conversion Reagent was added and samples were incubated at 70° C. for 3 hours, shaking at 1100 rpm in the dark. After conversion, the samples were desalted by incubation on ice for 10 minutes and addition of 400 μl of M-Binding buffer. The samples were loaded on a Zymo-Spin I Column in a collection tube and after centrifugation washed with 200 μl of M-Wash Buffer. 200 μl of M-Desulphonation Buffer was put onto the column and incubated at room temperature for 15 minutes. After centrifugation of the columns, they were washed twice with 200 μl of M-Wash Buffer. Finally, the DNA was washed from the column in 50 μl Tris-HCl 1 mM pH8.0 and stored at −80° C., until further processing.

Substance	Sens adenoma [%]	Sens CRC [%]	Spec [%]
GATA5 (DNA AGTTCGTTTTTAGGTTAGTTTTCGGC; listed as DNA, chemistry not given here)	0	27	100
SFRP1 (DNA TGTAGTTTTCGGAGTTAGTGTCGCGC; listed as DNA, chemistry not given here)	8	67	100
